How the values were obtained:
[1] = target: T1, BACE1 (Homo sapiens (Human), UniProt P56817); assay: In vitro enzymatic BACE1 FRET assay; format: biochemical; conditions: pH 4.5, 1 h pre-incubation, read-out: BACE1 Enzyme IC50
Procedure: (§1) In Vitro Enzymatic BACE1 and BACE2 FRET (Fluorescence Resonance Energy Transfer) Assays
(§2) The cDNAs for both human recombinant BACE1 and 2 with C-terminal 6-His Tags were cloned into transient protein expression vectors, which were subsequently transfected into mammalian cell lines. These recombinant proteins were further purified using Ni-NTA affinity chromatography (Qiagen). The assay buffer used in these screens was 0.05 M acetate, pH 4.5, 8% DMSO final, 100 μM genapol (which is a nonionic detergent, below its Critical Micelle Concentration). The β-secretase enzyme (0.02 nM for BACE1 and 0.64 nM for BACE2), which was pre-incubated for one hour with the test compound, typically in about luL of DMSO according to a serial dilution, was added thereto. The assay was effectively started by the addition of FRET substrate (50 nM) and the combination was incubated for one hour. The FRET assay was terminated by the addition of tris buffer, which raised the pH to neutrality, and the fluorescence was determined. The FRET substrate was a peptide with commercially available fluorophore and quencher, on opposite sides of the BACE cleavage site. The specific FRET substrate used in this assay was made by Amgen in-house. Commercially available FRET substrates, for example, the FRET substrate offered with the BACE1 FRET Assay Kit sold by ThermoFisher Scientific (Catalog Number P2985), may be used in this assay with the appropriate modifications, which are within the purview of the ability of a person with ordinary skill in the art. Proteolytic cleavage of the FRET substrate released quenching of fluorescence (excitation 488 nm and emission 590 nm).
Target sequence in this assay (P56817 46-501): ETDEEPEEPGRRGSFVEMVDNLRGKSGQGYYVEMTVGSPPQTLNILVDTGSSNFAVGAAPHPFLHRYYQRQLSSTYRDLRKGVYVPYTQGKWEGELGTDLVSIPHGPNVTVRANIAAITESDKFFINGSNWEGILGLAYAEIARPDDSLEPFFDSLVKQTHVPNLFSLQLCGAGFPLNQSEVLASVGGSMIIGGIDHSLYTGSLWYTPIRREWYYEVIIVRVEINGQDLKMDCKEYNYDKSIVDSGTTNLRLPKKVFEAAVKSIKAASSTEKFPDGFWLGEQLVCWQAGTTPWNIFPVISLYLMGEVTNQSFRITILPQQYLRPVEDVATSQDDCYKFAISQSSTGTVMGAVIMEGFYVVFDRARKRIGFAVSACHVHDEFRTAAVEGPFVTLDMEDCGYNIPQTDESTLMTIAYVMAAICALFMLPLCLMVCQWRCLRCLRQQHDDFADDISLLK

[2] = target: Recombinant CatD (Homo sapiens (Human), UniProt P07339); assay: In vitro enzymatic Cathepsin D (CatD) FRET assay; format: biochemical; conditions: pH 3.5, 1 h pre-incubation, read-out: Cat D Enzyme IC50
Sequence of Recombinant CatD (P07339 65-412): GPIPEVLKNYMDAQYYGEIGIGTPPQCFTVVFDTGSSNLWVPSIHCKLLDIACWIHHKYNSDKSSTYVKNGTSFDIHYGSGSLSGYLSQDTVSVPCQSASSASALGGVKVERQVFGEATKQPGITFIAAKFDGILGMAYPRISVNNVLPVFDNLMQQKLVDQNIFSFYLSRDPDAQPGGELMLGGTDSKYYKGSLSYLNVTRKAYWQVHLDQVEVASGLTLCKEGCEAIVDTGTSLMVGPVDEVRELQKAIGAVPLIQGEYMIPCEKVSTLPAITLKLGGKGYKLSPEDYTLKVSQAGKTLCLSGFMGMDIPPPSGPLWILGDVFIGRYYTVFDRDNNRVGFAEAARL
Procedure: In Vitro Enzymatic Cathepsin D (CatD) FRET Assay Recombinant CatD was expressed in CHO cells. The assay buffer for CatD was 0.05 M citrate pH 3.5, 10% DMSO final, 5 mM CHAPS. The CatD enzyme (9 nM) was pre-incubated for one hour with inhibitors, typically in about luL of DMSO according to a serial dilution, is added thereto. The assays was effectively started by the addition of different FRET substrates (20 nM for CatD) and the combination was incubated for one hour. The FRET assay was terminated with by addition of tris buffer, which raises the pH to neutrality, and the fluorescence was determined. The FRET substrate was a peptide with commercially available fluorophore and quencher, on opposite sides of the CatD cleavage site. The CatD substrate peptide sequence was based on sequence #1 of Table 1 from Gulnik et al., FEBS Lett. 413(2):379-384 (1997). Proteolytic cleavage of the FRET substrate released quenching of fluorescence (CatD excitation 500 nm and emission 580 nm). The in vitro CatD FRET assay data for each of the Examples is provided in Table 2, conducted by the first procedure described above. […] Thus, with this surprising selectivity profile, the compounds provided herein are believed to minimize, reduce or completely eliminate any risk of retinal atrophy and abnormal development of the eye and of the retinal pigmented epithelium as it relates to the normal function and activity of CatD.

[3] = target: human recombinant BACE2 (Homo sapiens (Human), UniProt Q9Y5Z0); assay: In vitro enzymatic BACE2 FRET assay; format: biochemical; conditions: pH 4.5, 1 h pre-incubation, read-out: BACE2 Enzyme IC50
Sequence of human recombinant BACE2 (Q9Y5Z0 63-518): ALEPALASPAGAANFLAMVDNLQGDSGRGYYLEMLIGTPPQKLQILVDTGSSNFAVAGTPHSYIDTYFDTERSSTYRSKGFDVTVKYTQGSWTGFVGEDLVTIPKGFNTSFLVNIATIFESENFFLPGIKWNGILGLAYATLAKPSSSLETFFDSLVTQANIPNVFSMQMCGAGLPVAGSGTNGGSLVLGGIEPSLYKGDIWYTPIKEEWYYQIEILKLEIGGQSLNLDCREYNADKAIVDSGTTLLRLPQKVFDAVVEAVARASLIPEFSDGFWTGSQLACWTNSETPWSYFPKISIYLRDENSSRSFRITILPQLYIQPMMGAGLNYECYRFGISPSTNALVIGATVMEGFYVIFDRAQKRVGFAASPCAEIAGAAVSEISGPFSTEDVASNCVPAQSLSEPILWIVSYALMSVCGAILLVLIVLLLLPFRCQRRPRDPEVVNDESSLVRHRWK
Procedure: as §1, §2

[4] = target: T1, BACE1; assay: In vitro BACE1 cell-based assay (Aβ40 in conditioned medium, HTRF); conditions: Aβ40 in conditioned medium of cells stably expressing APP, 24 h
Procedure: In Vitro BACE1 Cell-Based Assay
The cell-based assay measures inhibition or reduction of Aβ40 in conditioned medium of test compound treated cells expressing amyloid precursor protein. Cells stably expressing Amyloid Precursor Protein (APP) were plated at a density of 45K cells/well in 384 well plates (Corning/BioCoat 354663). The test compounds were then added to cells in 22-point dose response concentrations with the starting concentration being 62.5 μM. The compounds were diluted from stock solutions in DMSO and the final DMSO concentration of the test compounds on cells was 0.625%. The cells were cultivated overnight at 37° C. and 5% CO2 in DMEM supplemented with 10% FBS. After 24 h of incubation with the test compounds, the conditioned media was collected and the Aβ40 levels were determined using HTRF (Homogeneous Time Resolved Fluorescence). The IC50 of the compound was calculated from the percent of control or percent inhibition of Aβ 40 as a function of the concentration of the test compound.
The HTRF to detect Aβ40 was performed in 384 well plates (Costar 3658). The antibody pair that were used to detect Aβ 40 from cell supernatants were ConfAb40 antibody (Amgen in-house) and biotinylated 6E10 (BIOLEGEND). As an alternative to ConfAb40, a commercially available antibody, Anti-beta Amyloid 1-40 antibody [BDI350] from Abcam, Cambridge, Mass. 02139-1517 (Product code: ab20068), may be used in this assay. The concentrations were 0.35 μg/mL of ConfAb40 antibody and 1.33 μg/mL of 6E10-biotinylated antibody, as well as 4.5 μg/mL of Streptavidin Allophycocyanin Conjugate (ThermoFisher Scientific) in HTRF Buffer (1M Hepes pH 7.5, 1M NaCL, 1% BSA, 0.5% Tween 20).
The conditioned media was incubated with above antibodies and Streptavidin Allophycocyanin Conjugate for 30-60 minutes at 23° C. The final readout was performed on Envision from PerkinElmer.
Target sequence in this assay (P56817 46-501, species assumed): as the sequence (P56817 46-501) above

[5] = repeated doses up to 200 mg, phase I clinical trial; cited from earlier work
[6] = system: Aβ peptide levels in the CSF and plasma; conditions: nonhuman primates; cited from earlier work
[7] = in vivo; cited from earlier work
[8] = system: Aβ peptide in CSF; conditions: cited from earlier work
[9] = system: pigment epithelium of the rat's eye; conditions: higher compound dose given for three months; cited from earlier work
[10] = phase I clinical trials; cited from earlier work
[11] = system: CSF Aβ peptide concentrations; conditions: sustained and dose-dependent manner; cited from earlier work

CNC(=O)[C@]1(C)C[C@@](C)(c2cc(/C=C(\F)c3ccc(C#N)cn3)ccc2F)N=C(N)S1 [Example 116, (4S,6S)-2-amino-4-(5-((Z)-2-(5-cyanopyridin-2-yl)-2-fluorovinyl)-2-fluorophenyl)-N,4,6-trimethyl-5,6-dihydro-4H-1,3-thiazine-6-carboxamide]
IC50 [1]: 25 nM
IC50 [2]: 68600 nM
IC50 [3]: 560 nM
IC50 [4]: 10 nM

C[C@H]1OC[C@]2(c3cc(NC(=O)c4cnc(C(F)F)cn4)ccc3F)N=C(N)SC[C@H]12 [Example E2609]
clinical safety [5]: did not show clinical significant safety concerns
reduction in Aβ peptide levels in the CSF and plasma [6]: significant reduction

C[C@@]1(c2cc(NC(=O)c3ccc(C#N)cn3)ccc2F)C=CSC(N)=N1 [JNJ-54861911]
ability to cross the blood-brain barrier [7]: demonstrated an ability to cross the blood-brain barrier
reduction of Aβ peptide concentrations ([8]; in vivo): dose-dependently reduce Aβ peptide concentrations
Aβ peptide reduction in CSF ([8]; oral dose of 95 mg once daily): up to 95%

C[C@@]1(c2cc(-c3cncnc3)c(F)cc2F)CCSC(N)=N1 [LY 2811376]
eye toxicity finding [9]: damaged the pigment epithelium of the rat's eye

CN1C(=N)N[C@](C)(c2cc(NC(=O)c3ccc(F)cn3)ccc2F)CS1(=O)=O [MK-8931]
safety profile [10]: excellent safety profile with no immediately noticeable side effects
CSF Aβ peptide concentrations [11]: significantly reduced

Source: US10889579B2, “Thiazine derivatives as β-secretase inhibitors and methods of use” (AMGEN INC., priority 2016, dated 2021)
